From US6593337B1, “Tricyclic compounds useful as HIV reverse transcriptase inhibitors” (Bristol-Myers Squibb Pharma Company, priority 1999, dated 2003)

Compound | melting point
CC(C)N(C)CC1(C(F)(F)F)c2cc(Cl)ccc2Nc2ncccc21 (stereo not drawn) [No. 93] | 157 to 158 °C
CCN(CC)CC1(C(F)(F)F)c2cc(Cl)ccc2Nc2ncccc21 (stereo not drawn) [No. 94, 7-Chloro-5-(N,N-diethylaminomethyl)-5,10-dihydro-5-(trifluoromethyl)benzo[b][1,8]napthyridine] | 110 to 111 °C
Fc1ccc2c(c1)C(OCC1CC1)(C(F)F)c1cccnc1N2 (stereo not drawn) [No. 180, 7-Fluoro-5-cyclopropylmethoxy-5-difluoromethyl-5,10-dihydro-benzo[b][1,8]naphthyridine] | 137 to 138 °C
[O-][n+]1cccc2c1Nc1ncc(Cl)cc1C2(OCC1CC1)C(F)(F)F (stereo not drawn) [No. 201, 3-Chloro-10-cyclopropylmethoxy-10-trifluoromethyl-9,10-dihydro-1,8,9-triaza-anthracene 8-oxide] | 68 to 69 °C
CC(C)COC1(C(F)(F)F)c2cccnc2Nc2ncc(Cl)cc21 (stereo not drawn) [No. 203, 3-Chloro-10-isobutoxy-10-trifluoromethyl-9,10-dihydro-1,8,9-triaza-anthracene] | 166 to 167 °C

Other lines, results leading:

melting point | Compound
148 to 149 °C | FC(F)C1(OCCC2CC2)c2cc(Cl)ccc2Nc2ncccc21 (stereo not drawn) [No. 181, 7-Chloro-5-(2-cyclopropyl-ethoxy)-5-difluoromethyl-5,10-dihydro-benzo[b][1,8]naphthyridine]
204 to 205 °C | FC(F)C1(Cc2ccccn2)c2cc(Cl)ccc2Nc2ncccc21 (stereo not drawn) [No. 182, 7-Chloro-5-pyridin-2-ylmethyl-5-difluoromethyl-5,10-dihydro-benzo[b][1,8]naphthyridine]
185 to 186 °C | [O-][n+]1cccc2c1Nc1ccc(Cl)cc1C2(OCC1CC1)C(F)F (stereo not drawn) [No. 184, 7-Chloro-5-cyclopropylmethoxy-5-difluoromethyl-5,10-dihydro-benzo[b][1,8]naphthyridine 1-oxide]
166 to 167 °C | [O-][n+]1cccc2c1Nc1ccc(F)cc1C2(OCC1CC1)C(F)F (stereo not drawn) [No. 185, 7-Fluoro-5-cyclopropylmethoxy-5-difluoromethyl-5,10-dihydro-benzo[b][1,8]naphthyridine 1-oxide]
175 to 176 °C | [O-][n+]1cccc2c1Nc1ccc(Cl)cc1C2(OCCC1CC1)C(F)F (stereo not drawn) [No. 186, 7—Chloro-5-(2-cyclopropyl-ethoxy)-5-difluoromethyl-5,10-dihydro-benzo[b][1,8]naphthyridine 1-oxide]
210 to 211 °C | [O-][n+]1cccc2c1Nc1ccc(Cl)cc1C2(Cc1ccccn1)C(F)F (stereo not drawn) [No. 187, 7—Chloro-5-pyridin-2-ylmethyl-5-difluoromethyl-5,10-dihydro-benzo[b][1,8]naphthyridine 1-oxide]
163 to 164 °C | [O-][n+]1cc(Cl)cc2c1Nc1ccc(Cl)cc1C2(OCC1CC1)C(F)F (stereo not drawn) [No. 188, 3,7-Dichloro-5-cyclopropylmethoxy-5-difluoromethyl-5,10-dihydro-benzo[b][1,8]naphthyridine 1-oxide]
